Assay results published in patent US8227516B2, “Compounds as histone deacetylase inhibitors” (4SC Discovery GmbH, priority 2002, dated 2012).
Where two headings read alike, the source gives them in different places.

What was measured:
[1] = test system: BV-173 cells; experiment: Measurement of apoptosis, FACS sub-G1 by propidium iodide staining; format: cell-based; conditions: with Z-VAD, 24 hours
Text: Measurement of Apoptosis. FACS analysis of the cell cycle by propidium iodide (PI) staining. The cell cycle can be divided into four different sections: During G0/1-phase cells are in senescence or proliferate, in S-phase cells start replicating their DNA, and during G2- and M-phase cells undergo mitosis. […] Degradation of DNA is a marker for apoptosis. The sub-G1 area indicates the hypodiploid DNA peak corresponding to cells with fragmented DNA undergoing apoptosis Using a dye that intercalates with DNA (such as propidium iodide—PI) the cellular DNA content was determined. Between 5×10^5-1×10^6 cells were seeded out in cell culture dishes and treated for the desired time with the desired amount of test compound. After the incubation cells were harvested, washed in cold PBS, and the cell pellet was resuspended in 1 ml 70% ethanol (−20° C.). These cell pellets may be shelved for several month.
For PI staining 3 ml cold sodium citrate solution (38 mM, pH 7.4) was added, cells were pelleted and stained with 500 μl sodium citrate solution (38 mM, pH 7.4) containing 50 μg/ml PI and 5 μg/ml RNase. After a 30 minute incubation time at 37° C. in darkness, cells were analyzed via FACS analysis. The sub-G1-peak constitutes the amount of apoptotic cells.

[2] = test system: HDAC activity in nuclear extracts from HeLa cells; experiment: In vitro HDAC activity in HeLa nuclear extracts (Fluor de Lys); format: biochemical; conditions: read-out: concentration giving 50% reduction of HDAC activity
Text: Relative HDAC activity is shown as percent of activity of untreated nuclear extracts.
(§1) In vitro inhibition of recombinant HDAC's. The determination of histone deacetylase activity in HeLa nuclear extracts or recombinant HDAC proteins from High5 insect cells is based on the specific deacetylation of an artificial substrate (Fluor de Lys, Biomol). The substrate turn over may be detected and quantified by fluorometry. By addition of a potential HDAC inhibitor the hydrolysis of the substrate is constrained resulting in a decreased fluorometric signal. IC50 values may be calculated from dose-response curves.
(§2) The assay is separated in two steps: in the first step the substrate (Fluor de Lys/Biomol KI-104) is hydrolysed by histone deacetylases. In step two HDAC activity is terminated and the fluorophore is activated by the addition of a developer (Developer/Biomol KI-105). Nuclear extracts from HeLa cells (Biomol KI-140) or recombinant proteins and the potential HDAC inhibitor are mixed with reaction buffer (Biomol KI143) to a total volume of 25 μl per well of a 96 well plate. 25 μl substrate (1:100 dilution in reaction buffer) per well are added to start the reaction. A negative control without histone deacetylase activity and a positive control without HDAC inhibitor are treated likewise. The reaction is stopped after 15-60 min. by adding 50 μl developer (1:20 dilution in reaction buffer). After another 15 min. incubation time at room temperature the fluorescence signal is stable for 60 min and may be detected by a fluorescence reader (excitation filter: 390 nm, emission filter: 460 nm).

[3] = test system: histone H4 acetylation in 293T cells; experiment: Induction of histone H4 hyperacetylation, Western Blot; format: cell-based; conditions: 6 hours
Text: Induction of histone hyperacetylation. These acetylated histones can be detected by Western Blot analysis of whole cell extracts from histone deacetylase inhibitor-treated 293T cells using antibodies specific for the acetylated N-terminal lysine residues of histones H4 (Göttlicher et al., 2001, EMBO J. 20, 6969-78).
Since histone deacetylase inhibitors shift the enzymatic balance between histone acetyl transferases (HAT's) and histone deacetylases (HDAC's) towards HAT's by blocking HDAC's, they induce the accumulation of N-terminally hyperacetylated histones H4. This can be seen in FIG. 2 by the induction of histone hyperacetylation after treatment of 293T cells for 6 hours with Compounds 1, 2 and 3. Hyperacetylation can be seen with Compounds 1 and 2 at a concentration as low as 1.6 μM with a maximum induction at […], whereas compound 3 induces hyperacetylation starting at 320 nM.

[4] = test system: HDAC-dependent transcriptional repression in reporter cell line UAS TK-luc (293T cells); experiment: Transcriptional reporter gene assay (UAS TK luciferase, Gal4-repressor fusion); format: cell-based; conditions: for concentration at which induction of luciferase reporter gene expression starts: 24 hours treatment; for fold induction at 8 µM: Homo sapiens, HEK-293T, read-out: fold induction of luciferase reporter gene expression
Experimental: Depicted is the fold induction of luciferase expression after treatment of cells at the indicated concentrations of Compounds 1, 2 and 3.
Transcriptional reporter gene assay. The transcriptional assay for repressor activity exploits activation and derepression of a Gal4-dependent reporter gene (Hildebrand et al., 2001, J Biol Chem 276, 9889-95; Maurer et al., 2002, Blood 99, 2647-52). This assay is performed with specifically constructed permanent cell lines. 293T cell were stably transfected with a UAS TK luciferase reporter plasmid (Heinzel et al., 1997 Nature 387, pp 43-48) and an expression plasmid for the Gal4 DNA binding domain fused to an HDAC-dependent repressor molecule. While Gal4 fusion proteins repress this activity, HDAC inhibitors induce relief of this repression which can be detected as an increase in reporter gene activity (e.g. by luciferase activity detection assay).
Addition of Compounds 1, 2 and 3 relieve this repression as measured by increased expression and activity of luciferase in lysates of treated cells after 24 hours. Both, Compound 1 and 2 induce luciferase reporter gene expression after stimulation of cells for 24 hours starting at a concentration of 8 μM (2-3 fold) with a maximum induction of more than 20 fold at 200 μM. Compound 3, however, induces expression of reporter gene already at a concentration of 1.6 μM with a maximum induction of almost 40 fold at 40 μM.

[5] = test system: BCL-XL expression in K562 cells; experiment: Protein expression profiling, Western Blot: BCL-XL down-regulation; format: cell-based; conditions: 36 hours
Text: (§3) Protein expression profiling. The expression pattern induced by histone deacetylase inhibitors can be monitored by Western Blot analysis with antibodies against p21 and BCL-XL using whole cell extracts of cells treated with the respective compounds at the indicated concentrations. Modulation of protein expression is exemplified by the induction of expression of the cell cycle inhibitor/tumor suppressor p21 and the suppression of expression of the anti-apoptotic molecule BCL-XL.

[6] = test system: human tumor cell lines of breast, colon, pancreas and prostate origin; experiment: Growth inhibition of tumor cell lines (SRB assay); format: cell-based; conditions: various cancer cell lines, 72 hours
Experimental: Growth inhibition of tumor cell lines. The reduction in cellular biomass was measured by SRB-assay. For this assay cells were seeded in 96 well culture dishes at densities between 3000 and 8000 cells per well. After recovery of 24 hours cells were cultured for 48-72 hours in the absence or presence of the indicated concentrations of compounds. Synergistic reduction in total cellular biomass was assayed through SRB-assay by adding the compounds in the medium at the indicated concentrations and cultivate the cells for further 48 hours.
Cells were fixed with cold Trichloracetat (TCA) producing a final TCA concentration of 10%. After 1 hour of incubation at 4° C. the cells were washed five times with water and air dried. Fixed cells were stained for 30 minutes with 0.4% (wt/vol) Sulforhodamine B (SRB) dissolved in 1% acetic acid and washed four times with 1% acetic acid to remove unbound dye. After air drying bound dye was solubilized with 10 mM unbuffered Tris base (pH 10.5) for 5 minutes. Optical densities (OD) were read on a Molecular Devices Versa Max tunable microplate reader at 520-550 nm. Four test wells for each dose-response were set in parallel with 12 control wells per cell line. Measurement of the cell population density at time 0 (To; the time at which the drug was added) was also made from 12 reference wells of cells fixed with TCA just prior to drug addition to the test plates. Background OD of complete medium with 5% FBS fixed and stained as described above was also determined in 12 separate wells. From the unprocessed OD data from each microtiter plate the background OD measurements (i.e. OD of complete medium plus stain and OD of cells at T0) were subtracted thus giving the reduction of cellular biomass of the cells.

[7] = test system: p21 expression in K562 cells; experiment: Protein expression profiling, Western Blot: p21 induction; format: cell-based; conditions: 36 hours
Text: as §3

[8] = target: T1, recombinant HDAC6 (Homo sapiens, UniProt Q9UBN7); experiment: In vitro inhibition of recombinant HDAC6 (Fluor de Lys); format: biochemical; conditions: read-out: concentration giving 50% reduction of HDAC activity
T1 construct: made in house; host or cells: High5 insect cells
T1 sequence (Q9UBN7 1-1215): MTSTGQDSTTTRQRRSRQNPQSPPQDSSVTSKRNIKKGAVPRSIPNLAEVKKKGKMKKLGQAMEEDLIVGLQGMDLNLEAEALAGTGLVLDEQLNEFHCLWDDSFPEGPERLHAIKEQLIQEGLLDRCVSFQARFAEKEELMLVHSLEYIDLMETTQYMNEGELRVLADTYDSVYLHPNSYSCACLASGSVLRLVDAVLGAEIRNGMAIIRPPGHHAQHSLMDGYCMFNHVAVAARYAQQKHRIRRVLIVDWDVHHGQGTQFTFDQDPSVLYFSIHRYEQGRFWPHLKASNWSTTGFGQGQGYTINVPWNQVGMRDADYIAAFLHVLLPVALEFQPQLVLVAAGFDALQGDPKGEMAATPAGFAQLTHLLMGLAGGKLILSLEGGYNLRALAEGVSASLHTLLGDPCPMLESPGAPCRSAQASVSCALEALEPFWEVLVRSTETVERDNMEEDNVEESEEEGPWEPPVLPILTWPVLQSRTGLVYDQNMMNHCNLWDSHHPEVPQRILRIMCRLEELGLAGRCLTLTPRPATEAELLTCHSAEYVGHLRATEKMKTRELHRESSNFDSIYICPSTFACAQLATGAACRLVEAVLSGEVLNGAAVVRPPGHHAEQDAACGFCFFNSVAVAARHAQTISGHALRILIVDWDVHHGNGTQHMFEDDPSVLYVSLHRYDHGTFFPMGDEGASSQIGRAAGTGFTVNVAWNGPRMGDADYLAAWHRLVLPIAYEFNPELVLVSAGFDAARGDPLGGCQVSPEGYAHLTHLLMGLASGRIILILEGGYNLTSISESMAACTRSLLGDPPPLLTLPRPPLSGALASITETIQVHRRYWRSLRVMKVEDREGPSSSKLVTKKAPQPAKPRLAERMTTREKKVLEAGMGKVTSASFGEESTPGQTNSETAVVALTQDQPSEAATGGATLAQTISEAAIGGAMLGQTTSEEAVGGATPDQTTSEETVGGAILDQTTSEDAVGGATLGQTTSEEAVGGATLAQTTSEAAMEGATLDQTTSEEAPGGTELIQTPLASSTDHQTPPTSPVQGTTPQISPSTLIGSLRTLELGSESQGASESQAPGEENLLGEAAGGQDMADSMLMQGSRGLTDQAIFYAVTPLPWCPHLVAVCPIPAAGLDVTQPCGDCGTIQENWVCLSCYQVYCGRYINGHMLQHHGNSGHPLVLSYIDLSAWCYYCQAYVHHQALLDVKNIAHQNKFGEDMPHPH
Text: (§4) Relative HDAC activity is shown as percent of activity of untreated HDAC enzymes.
as §1
as §2, with “A negative control without histone deacetylase activity and a positive control without HDAC inhibitor are treated likewise. The reaction is stopped after 15-60 min. by adding 50 μl developer (1:20 dilution in reaction buffer).” left out

[9] = target: T2, recombinant HDAC1 (Homo sapiens, UniProt Q13547); experiment: In vitro inhibition of recombinant HDAC1 (Fluor de Lys); format: biochemical; conditions: read-out: concentration giving 50% reduction of HDAC activity
T2 construct: made in house; host or cells: High5 insect cells
T2 sequence (Q13547 whole entry, species assumed): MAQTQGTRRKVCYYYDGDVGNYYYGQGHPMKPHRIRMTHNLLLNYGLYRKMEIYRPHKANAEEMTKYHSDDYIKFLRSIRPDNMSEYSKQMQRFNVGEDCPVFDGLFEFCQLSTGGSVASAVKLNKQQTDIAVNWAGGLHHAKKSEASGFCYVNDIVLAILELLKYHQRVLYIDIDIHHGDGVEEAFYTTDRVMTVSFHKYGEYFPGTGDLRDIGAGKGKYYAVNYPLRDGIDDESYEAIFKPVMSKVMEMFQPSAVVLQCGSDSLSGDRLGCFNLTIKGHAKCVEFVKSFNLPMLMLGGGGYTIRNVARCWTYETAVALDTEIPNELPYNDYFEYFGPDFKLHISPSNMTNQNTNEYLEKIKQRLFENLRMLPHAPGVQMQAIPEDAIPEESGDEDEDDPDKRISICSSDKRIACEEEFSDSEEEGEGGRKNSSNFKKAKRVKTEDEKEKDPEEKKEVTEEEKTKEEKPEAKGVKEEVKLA
Text: as §4, §1
as §2, with “A negative control without histone deacetylase activity and a positive control without HDAC inhibitor are treated likewise. The reaction is stopped after 15-60 min. by adding 50 μl developer (1:20 dilution in reaction buffer).” left out

[10] = target: T3, recombinant HDAC8 (Homo sapiens, UniProt Q9BY41); experiment: In vitro inhibition of recombinant HDAC8 (Fluor de Lys); format: biochemical; conditions: read-out: concentration giving 50% reduction of HDAC activity
T3 construct: made in house; host or cells: High5 insect cells
T3 sequence (Q9BY41 1-377): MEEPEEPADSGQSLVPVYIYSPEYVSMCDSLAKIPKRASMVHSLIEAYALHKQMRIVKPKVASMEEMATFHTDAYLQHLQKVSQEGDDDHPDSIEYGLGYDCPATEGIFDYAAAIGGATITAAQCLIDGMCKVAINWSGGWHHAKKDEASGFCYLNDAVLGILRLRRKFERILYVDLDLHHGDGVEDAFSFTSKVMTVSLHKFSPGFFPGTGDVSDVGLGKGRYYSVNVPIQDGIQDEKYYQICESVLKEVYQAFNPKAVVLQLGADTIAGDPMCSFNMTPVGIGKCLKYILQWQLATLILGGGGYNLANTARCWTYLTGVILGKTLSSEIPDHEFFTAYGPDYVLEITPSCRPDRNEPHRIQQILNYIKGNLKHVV
Text: as §4, §1
as §2, with “A negative control without histone deacetylase activity and a positive control without HDAC inhibitor are treated likewise. The reaction is stopped after 15-60 min. by adding 50 μl developer (1:20 dilution in reaction buffer).” left out

[11] = read-out: concentration inducing 50% growth arrest (IC50), mean over cell lines
[12] = read-out: concentrations inducing 50% growth arrest (IC50), range over cell lines

Row | IC50 [2] | IC50 [6, 11] | IC50 [6, 12] | IC50 [8] | IC50 [9] | IC50 [10] | SMILES | apoptotic process in the presence of pan-caspase inhibitor Z-VAD [1] | concentration of maximum induction of histone H4 hyperacetylation [3] | lowest concentration at which histone H4 hyperacetylation is seen [3] | concentration at which induction of luciferase reporter gene expression starts [4] | fold induction at 8 µM ([4]; 24 hours) | concentration inducing BCL-XL downregulation [5] | concentration inducing p21 expression [7] | concentration at which histone H4 hyperacetylation starts [3] | maximum induction of luciferase reporter gene expression ([4]; at 40 μM, 24 hours)
1 | 6.1 µM | 15 µM | 5 to 26 µM |  |  |  | O=C(CCC1CCCCC1)NO [Compound 2, 3-Cyclohexyl-N-hydroxy-propionamide] | completely blocked | 40 µM | 1.6 µM | 8 µM | 2 to 3 | 8 µM | 8 µM |  | 
2 | 14.7 µM | 33 µM | 8 to 70 µM |  |  |  | O=C(CCC1CCCC1)NO [Compound 1, 3-Cyclopentyl-N-hydroxy-propionamide] | completely blocked | 40 µM | 1.6 µM | 8 µM | 2 to 3 | 200 µM | 40 µM |  | 
3 | 0.9 µM | 2.6 µM | 0.5 to 8 µM | 0.3 to 0.4 µM | 0.3 to 0.4 µM | 0.3 to 0.4 µM | O=C(C=CC1CCCCC1)NO [Compound 3, 3-Cyclohexyl-N-hydroxy-acrylamide] | completely blocked |  |  | 1.6 µM |  | 8 µM | 8 µM | 320 nM | ~40 fold
